Measurements reported in US9428732B2, “Compositions and methods for differentiating pluripotent stem cells into primitive blood cells and uses thereof” (Primorigen Biosciences, Inc., priority 2011, dated 2016).

Assays:
[1] = system: pluripotent lines (ES, iPS); test: Additional molecules added to Differentiation Medium 1, FACS and flow cytometry; format: cell-based, human; settings: for total number of cells: added to Differentiation Medium 1 (contains DEAB): LG101506 1 uM, sodium selenite 100 nM, valproic acid 1 mM
Experimental: (§1) Cells from the differentiation cultures were collected at time points indicated and washed in phosphate-buffered saline (PBS) supplemented with 2% FBS. Adherent cells were individualized using TrypLE (Life Technologies, Carlsbad Calif.), passed through a 27.5-gauge needle and filtered through a 40-70 μm cell strainer (BD Falcon, San Diego, Calif., www.bdbiosciences.com). Cells were treated with 7-aminoactinomycin D (7AAD) before analysis, and positive cells were gated out of results. Cells were stained with fluorescence-conjugated antibodies for the hematopoietic stem and progenitor cell markers CD45, CD43, CD34, CD38, CD90; CD45RA. Cells were analyzed on a FACS Canto (BD, Franklin Lakes, N.J., www.bd.com).
We have completed a number of studies to establish other molecules that may further improve the yields and phenotypes of hematopoietic cells derived using Differentiation Medium 1. Tested compounds were Cripto, LY2228820, valproic acid (VPA), sodium selenite, and butein. In all instances, each molecule below was supplemented into Differentiation Medium 1 to study their effect in concert with DEAB. All control experiments for these molecules were cells differentiated using Differentiation Medium 1 (which already contains DEAB). The data we report below for these molecules illustrates how they may improve the yield of hematopoietic progenitors and phenotypic stem cells measured by FACS, flow cytometry, and CFU assays. […] The in vivo engraftment studies to confirm this for these molecules are underway.
(§2) It has been shown that DS DNA breaks reduce transplant efficiency of repopulating HSCs. In vitro derived blood from pluripotent stem cell has high levels of DNA damage. Inhibition of DNA damage and the DNA damage response, from reactive oxygen species (ROS) or other sources of damage (radiation, chemical etc) in pluripotent stem cell differentiation systems will decrease DNA damage and increase hematopoietic cell number, repopulating ability and increase the differentiation potential of the cells (i.e. expansion of downstream lineages). See Yahata et al. Blood, 2011, 118(11):2941-50). […] Adding sodium selenite (100 nM) and butein (10 uM) independently to Differentiation Medium 1 increased enzyme activity for protection against reactive oxygen species (ROS). […] See FIGS. 11A and 11B for sodium selenite and FIGS. 12A and 12B for butein. These studies are being expanded into dose response experiments from which we expect to identify optimal concentrations.
From the pluripotent stem cells differentiated with Differentiation Medium 1 supplemented with 1 mM of valproic acid, we see that all CD34+CD38− cells were 100% CD90+. […] Engraftment studies as described are also being conducted.

[2] = system: pluripotent stem cells (H1 ES cells and CB1 iPS cells); test: CFU assay of cells differentiated in Differentiation Medium 1 plus additional molecule; format: cell-based, human; settings: for size of CFU colonies: in the present system
Experimental: FIG. 14 depicts myeloid CFU cell count data for cells differentiated from pluripotent stem cells (H1 ES cells and CB1 iPS cells) in the presence of DEAB and each of Cripto (500 ng/ml), LY2228820 (shown as “LY222820”, 100 nM), Activin A, valproic acid (VPA, 1 mM), sodium selenite (100 nM), and butein (10 μM).
The differentiation cultures were trypsinized at the indicated time points and single-cell suspensions were generated following trypsinization. For the Colony Forming Unit (CFU) assays using methyl cellulose cultures, 25% of the cells were plated in 2 ml of MethoCult H4435 (STEMCELL Technologies, Vancouver, BC) in six-well plates. Alternatively, sorted CD45+, CD43+, CD34+, 7AAD-cells were sorted and plated at 500 cells per 2 ml Methocult media. Cells were incubated for 14 days in a humidified incubator at 37° C. with 5% CO2 and evaluated for colonies by bright-field microscopy (Zeiss (Oberkochen, Germany, www.zeiss.com) Axiovert 200 with a Zeiss Axiocam), Cells were resuspended in PBS supplemented with 2% FBS. For the lymphoid myeloid differentiation assays, either CD45+, CD43+, CD34+, 7AAD-hematopoietic progenitors, or CD45+, CD43+, CD34+, CD38−, CD90+, CD45RA− phenotypic HSCs were plated at 20-40 cells per well onto OP9 and OP9delta feeder lines for B-cell and T-cell differentiation, respectively, as previously described (Nozad Charoudeh H, Tang Y, Cheng M, Cilio C M, Jacobsen S E, Sitnicka E., Identification of an NK/T cell-restricted progenitor in adult bone marrow contributing to bone marrow- and thymic-dependent NK cell, Blood, 2010 Jul. 15; 116(2):183-92. NK cell differentiation as well as myeloid cell differentiation was also detected in this differentiation system. FACS analysis was performed 4-6 weeks after plating for markers of lymphoid cell differentiation with the markers indicated. Similar cell sortings were performed for single cell Terasaki plate assays of myeloid differentiation and expansion using StemSpan media (STEMCELL Technologies, Vancouver, BC) supplemented with TPO, SCF, FLT3, IL3, GM-CSF. Colony size was estimated by microscopy.
We have completed a number of studies to establish other molecules that may further improve the yields and phenotypes of hematopoietic cells derived using Differentiation Medium 1. Tested compounds were Cripto, LY2228820, valproic acid (VPA), sodium selenite, and butein. In all instances, each molecule below was supplemented into Differentiation Medium 1 to study their effect in concert with DEAB. […] The data we report below for these molecules illustrates how they may improve the yield of hematopoietic progenitors and phenotypic stem cells measured by FACS, flow cytometry, and CFU assays. […]

[3] = system: NOD.Cg-Prkdc^scidI12rg^tm1Wjl/SzJ mice; test: Pluripotent stem cell derived hematopoietic cell transplantation, engraftment; format: in vivo; settings: Differentiation Medium 1 (containing DEAB) supplemented with the molecule; studies underway, predicted
Experimental: Single-cell suspensions of the pluripotent stem cell differentiation cultures described herein were injected into sublethally irradiated (325 rad) NOD.Cg-Prkdc^scidI12rg^tm1Wjl/SzJ mice (JAX, Bar Harbor, Me., www.jax.org) via tail vein injections, intrafemoral injection, or cardiac injection. Peripheral blood was harvested at times indicated via tail vein or retro-orbital eye bleed or cardiac puncture on anesthetized mice. Bone marrow and spleen cells were harvested at the terminal stage of the transplant experiment. Bone marrow cells were isolated via pestle mortar crushing of bone followed by rinsing and 70 micron filtering. Cells were analyzed by FACS, CFU assay, or transplanted serially into secondary and tertiary mice. FACS analysis for the human pan hematopoietic marker CD45, progenitor marker CD34, myeloid markers CD11b, CD15, CD33 and lymphoid markers CD19, CD56 and CD132, and erythroid markers CD235. When erythrocytes were not being analyzed, the red cells were lysed using ammonium chloride solution (0.8% NH4Cl with 0.1 mM EDTA) (STEMCELL Technologies, Vancouver, BC), spun, and stained with antibodies against the above-mentioned markers. All animal experiments were conducted in accordance with Institutional Animal ethical use protocols.
We have confirmed short-term engraftment and reconstitution ability of hPSC-derived HSCs produced as described in Example 1, by injecting them into sublethally irradiated (325 rad) NOD.Cg-Prkdc^sicdI12rg^tm1Wjl/SzJ mice (JAX, Bar Harbor, Me., www.jax.org) via tail vein injections, intrafemoral injection, or cardiac injection. We transplanted NOD.Cg-Prkdc^scidI12rg^tm1Wjl/SzJ mice with 3×10^6 unsorted cells or 5000 FACS sorted phenotypic HSCs (CD45+, CD43+, CD34+, CD38−, CD90+, CD45RA−) from differentiations using Differentiation Medium 1 medium not including with DEAB (Control) and Differentiation Medium 1 medium including DEAB (DEAB HSCs). […] Typical published values range from 0.1%-1.0%, including those obtained from our control where DEAB was not used to generate the HSCs (0.34%±0.1%).

H1 ES cells = test: LY2228820 added to Differentiation Medium 1, flow cytometry, ES cells; format: cell-based, human; settings: 100 nM LY2228820; FIG. 8A
Experimental: as §1
(§3) We conducted experiments to determine whether the p38 inhibitor LY2228820 could further increase hematopoietic progenitor and phenotypic stem cell outputs by acting in concert with DEAB when added to Differentiation Medium 1. Human ES and iPS cells were differentiated to progenitors and phenotypic stem cells as described, except 100 nM of LY2228820 was added to Differentiation Medium 1. Cells were then harvested as described and subjected to flow cytometry and FACS analysis using fluorescently labeled antibodies for CD45, CD43, CD34, CD38, CD90, CD45RA as described. […]

iPS cells = test: LY2228820 added to Differentiation Medium 1, flow cytometry, iPS cells; format: cell-based, human; settings: 100 nM LY2228820; FIG. 8B
Experimental: as §1, §3

[4] = system: pluripotent stem cell differentiation cultures; test: Enzyme activity for protection against reactive oxygen species; format: cell-based, human; settings: added independently to Differentiation Medium 1: sodium selenite 100 nM, butein 10 uM
Source text: as §2

human ES cells = test: Norepinephrine added to Differentiation Medium 1, flow cytometry; format: cell-based
Experimental: as §1
We conducted experiments to reveal if human embryo AGM region-harvested cells generate neurospheres in culture to confirm the presence of neural crest cells in the AGM region. We further completed some experiments to identify a component secreted from the neural crest cells that may be involved in definitive hematopoiesis. We harvested human embryo AGM region tissue and, using fluorescent labeled antibodies specific for neural crest cells, were able to identify the presence of neural crest cells in the AGM hematopoietic niche. […] Hypothesizing norepinephrine as a potential effector secreted from the neural crest cells, we tested it for its ability to further increase progenitor and phenotypic stem cell yields when added to Differentiation Medium 1 at a concentration of 10 uM or 300 uM. Human ES and iPS cells were differentiated to progenitors and phenotypic stem cells with Differentiation Medium 1 as described. The only difference is that 10 uM or 300 uM of norepinephrine was added to Differentiation Medium 1. Cells were then harvested as described and subjected to flow cytometry and FACS analysis using fluorescently labeled antibodies for CD45, CD43, CD34, CD38, CD90, CD45RA as described. […] Given the verified presence of neural crest cells in the AGM niche, we are confident that these cells play a role in establishing definitive hematopoiesis in the developing embryo. As such, long term engraftment and reconstitution ability of hematopoietic progenitors and phenotypic stem cells produced from iPS and ES cells differentiated with Differentiation Medium 1 plus norepinephrine as described above are currently underway. The engraftment and reconstitution studies will be conducted as described by the protocol outlined above in the Materials and Methods.

`C/C(=C/C=C/C(C)=C/C(=O)O)c1cc(C(C)(C)C)cc(C(C)(C)C)c1OCC(F)F` [LG101506] was tested, and the “total output of CD90+ cells” value ([1]; LG101506 1 uM in Differentiation Medium 1, ES, iPS) was “increases”, the “total number of cells” value ([1]; butein 10 uM) was “increased” and the “CFU cellularity and output” value [2] was “enhances”. The “suitability of generated phenotypic HSC cells for in vivo engraftment” value (from here on “suitability”) [3] was “suitable for successful in vivo engraftment”.

In the case of `CC(C)(C)Cn1c(N)nc2ccc(-c3[nH]c(C(C)(C)C)nc3-c3ccc(F)cc3)nc21` [LY2228820], the “increase of phenotypic hematopoietic stem cell phenotype (CD45+, CD43+, CD34+, CD38−, CD90+, CD45RA−) over DEAB-containing Differentiation Medium 1 control” value (H1 ES cells) is reported as ~20%, the “levels of the intermittent progenitor phenotype (CD45+, CD43+, CD34+, CD38−)” value (H1 ES cells) is reported as “unaffected” and the “numbers of all cells with the progenitor and phenotypic stem cell phenotypes” value (iPS cells) is reported as “increased”. For the same molecule, the “size of CFU colonies” value [2] was “increases CFU size” and the “suitability” value [3] was “suitable for successful in vivo engraftment”.

For `O=C(/C=C/c1ccc(O)c(O)c1)c1ccc(O)cc1O` [butein], the “CD34+, CD38− cells” value ([1]; added independently to Differentiation Medium 1: sodium selenite 100 nM, butein 10 uM) was “increased”, the “total number of cells” value ([1]; butein 10 uM) was “increased” and the “enzyme activity for protection against reactive oxygen species (ROS)” value [4] was “increased”. The “suitability” value [3] was “suitable for successful in vivo engraftment”.

With `NC[C@H](O)c1ccc(O)c(O)c1` [norepinephrine] the “increase in HSC number” value (human ES cells; hES-derived hematopoietic cells, norepinephrine in Differentiation Medium 1) was 150%, the “fold improvement of numbers of phenotypic hematopoietic stem cells (CD45+, CD34+, CD43+, CD38−, CD90+, CD45RA−)” value (human ES cells; norepinephrine 10 uM or 300 uM in Differentiation Medium 1, FIG. 9C) was “statistically significant increases” and the “total viable blood cells (CD45+)” value (human ES cells; norepinephrine 10 uM or 300 uM, FIG. 9A) was “insignificant improvements”. The “intermediate cells (CD45+, CD43+, CD34+, CD38−)” value (human ES cells; norepinephrine 10 uM or 300 uM, FIG. 9B) was “insignificant improvements”, the colony forming ability ([2]; hES-derived hematopoietic cells, norepinephrine, data not shown) was “has an effect” and the “suitability” value [3] was “suitable for successful in vivo engraftment”.

For `CCCC(CCC)C(=O)O` [valproic acid], the “CD34+CD38− cells that were CD90+” value ([1]; Differentiation Medium 1 supplemented with 1 mM of valproic acid) was 100%, the “total number of cells” value ([1]; butein 10 uM) was “increased” and the “suitability” value [3] was “suitable for successful in vivo engraftment”.

B1: Cripto: protein expressed in hypoxic endosteal niche cells (protein, UniProt P13385 31-150, looked up)
Protein Cripto: LGHQEFARPSRGYLAFRDDSIWPQEEPAIRPRSSQRVPPMGIQHSKELNRTCCLNGGTCMLGSFCACPPSFYGRNCEHDVRKENCGSVPHDTWLPKKCSLCKCWHGQLRCFPQAFLPGCD
In the case of B1, the “size of CFU colonies” value [2] is reported as “increases the size” and the “suitability” value [3] is reported as “suitable for successful in vivo engraftment”.
